According to patent publication US20060211700A1, “(R)-8,9-dichloro-2,3,4,4a-tetrahydro-1H,6H-pyrazino[1,2-a]quinoxalin-5-one for controlling IOP and treating glaucoma” (Alcon, Inc., priority 2005, published 2006):

How the values were obtained:
[1] = test system: lasered (hypertensive) eyes of conscious cynomolgus monkeys; assay: Acute IOP response in lasered (hypertensive) eyes of conscious cynomolgus monkeys; type: in vivo, cynomolgus monkey; conditions: for IOP % change / IOP Change mmHg: lasered eye; for IOP lowering efficacy (in words): dosed at 300 μg
Method: Acute IOP Response in Lasered (Hypertensive) Eyes of Conscious Cynomolgus Monkeys
Intraocular pressure (IOP) can be determined with an Alcon Pneumatonometer after light corneal anesthesia with 0.1% proparacaine. Eyes are washed with saline after each measurement. After a baseline IOP measurement, test compound is instilled in one 30 μL aliquot to the right eyes only of nine cynomolgus monkeys. Vehicle is instilled in the right eyes of six additional animals. Subsequent IOP measurements are taken at 1, 3, and 6 hours.
The above method was used to determine the IOP lowering efficacy of 8,9-dichloro-2,3,4,4a-tetrahydro-1H,6H-pyrazino[1,2-a]quinoxalin-5-one when dosed at 300 μg.
The same method was used to evaluate the IOP lowering ability of the R enantiomer of the Compound (substantially free of the S enantiomer), dosed at 300 μg.

[2] = biological target: T1, human serotonin receptor clone 5-HT2B (Homo sapiens, UniProt P41595); assay: In vitro functional response (aequorin luminescence) in CHO-K1 cells expressing 5-HT2B; type: cell-based; conditions: for Emax: CHO-K1, relative to the response of α-methyl-5-HT; for EC50: CHO-K1 cells, aequorin, Gα16
T1 construct: expressed in transfected cells; host or cells: CHO-K1
T1 sequence (P41595 whole entry): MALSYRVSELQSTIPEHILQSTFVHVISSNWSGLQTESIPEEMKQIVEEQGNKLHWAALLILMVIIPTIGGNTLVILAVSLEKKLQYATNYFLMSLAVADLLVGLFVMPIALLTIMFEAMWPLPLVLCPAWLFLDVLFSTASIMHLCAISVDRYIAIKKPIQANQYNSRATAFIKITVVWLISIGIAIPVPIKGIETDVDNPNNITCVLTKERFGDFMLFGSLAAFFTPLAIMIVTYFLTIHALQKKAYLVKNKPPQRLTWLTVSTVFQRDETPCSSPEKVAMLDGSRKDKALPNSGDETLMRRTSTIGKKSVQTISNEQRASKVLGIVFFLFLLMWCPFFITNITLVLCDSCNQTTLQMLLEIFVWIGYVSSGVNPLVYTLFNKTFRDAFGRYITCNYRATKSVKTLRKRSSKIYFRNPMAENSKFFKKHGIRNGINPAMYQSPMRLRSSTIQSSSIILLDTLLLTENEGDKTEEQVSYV
Method: (§1) In Vitro Functional Response at 5-HT2 Receptors
(§2) Functional response at the 5-HT2 receptor subtypes was determined using CHO-K1 cells stably expressing mitochondrially-targeted bioluminescent aequorin, Gα16, and one of either human serotonin receptor clone 5-HT2A, 5-HT2B, or 5-HT2C. Prior to testing, cells were loaded in suspension with coelenterazine for 4-16 hours and directly injected onto different concentrations of the test compound. Light emitted from the cells was measured 20-30 seconds following receptor activation. A luminometer was used to record luminescence in response to the test compound. The mean response signal at each of 8-11 different concentrations was integrated to provide an estimation of receptor activation, expressed as the EC50 value. The efficacy of the response (Emax) at the 5-HT2A and 5-HT2B receptors is expressed relative to the response of α-methyl-5-HT under the same assay conditions while the efficacy at 5-HT2C is expressed relative to the response of 5-HT.

[3] = biological target: T2, human serotonin receptor clone 5-HT2C (Homo sapiens, UniProt P28335); assay: In vitro functional response (aequorin luminescence) in CHO-K1 cells expressing 5-HT2C; type: cell-based; conditions: for Emax: CHO-K1, relative to the response of 5-HT; for EC50: CHO-K1 cells, aequorin, Gα16
T2 construct: expressed in transfected cells; host or cells: CHO-K1
T2 sequence (P28335 33-458): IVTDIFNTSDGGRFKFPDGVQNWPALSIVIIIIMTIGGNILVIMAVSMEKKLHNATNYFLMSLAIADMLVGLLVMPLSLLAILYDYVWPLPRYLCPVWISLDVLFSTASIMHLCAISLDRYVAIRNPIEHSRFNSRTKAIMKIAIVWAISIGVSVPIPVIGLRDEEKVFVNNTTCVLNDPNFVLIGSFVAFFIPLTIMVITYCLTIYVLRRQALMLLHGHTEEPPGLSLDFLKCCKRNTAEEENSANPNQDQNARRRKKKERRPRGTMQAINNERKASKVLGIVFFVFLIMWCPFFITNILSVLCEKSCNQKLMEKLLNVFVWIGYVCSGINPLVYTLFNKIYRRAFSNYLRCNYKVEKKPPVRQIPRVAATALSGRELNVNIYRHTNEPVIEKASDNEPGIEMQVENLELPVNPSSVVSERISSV
Method: as §1, §2

[4] = biological target: T3, human serotonin receptor clone 5-HT2A (Homo sapiens, UniProt P28223); assay: In vitro functional response (aequorin luminescence) in CHO-K1 cells expressing 5-HT2A; type: cell-based; conditions: for Emax: CHO-K1, relative to the response of α-methyl-5-HT; for EC50: CHO-K1 cells, aequorin, Gα16
T3 construct: expressed in transfected cells; host or cells: CHO-K1
T3 sequence (P28223 whole entry): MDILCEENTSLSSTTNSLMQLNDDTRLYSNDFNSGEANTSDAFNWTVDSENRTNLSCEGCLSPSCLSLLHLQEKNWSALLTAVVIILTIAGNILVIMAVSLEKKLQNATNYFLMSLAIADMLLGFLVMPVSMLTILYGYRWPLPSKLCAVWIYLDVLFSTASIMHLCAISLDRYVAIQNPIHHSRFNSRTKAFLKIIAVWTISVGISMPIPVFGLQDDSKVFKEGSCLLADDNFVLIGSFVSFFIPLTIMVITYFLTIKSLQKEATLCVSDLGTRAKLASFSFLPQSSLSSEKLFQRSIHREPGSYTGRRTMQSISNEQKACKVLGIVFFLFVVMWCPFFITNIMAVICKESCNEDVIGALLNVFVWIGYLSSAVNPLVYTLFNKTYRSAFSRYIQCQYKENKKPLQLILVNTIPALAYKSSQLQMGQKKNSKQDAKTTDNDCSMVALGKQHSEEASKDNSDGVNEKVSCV
Method: as §1, §2

5-HT2C receptor = biological target: T4, 5-HT2C receptor (Homo sapiens, UniProt P28335); conditions: R enantiomer versus S enantiomer; cited from earlier work
T4 sequence (P28335 33-458): T2 sequence (P28335 33-458)

[5] = 1 hr after topical dose of 300 μg (one 30 μL aliquot)
[6] = 3 hrs after topical dose of 300 μg (one 30 μL aliquot)
[7] = 6 hrs after topical dose of 300 μg (one 30 μL aliquot)

Structure (SMILES) | IOP % change [1, 5] [%] | IOP Change mmHg [1, 5] [mmHg] | IOP % change [1, 6] [%] | IOP Change mmHg [1, 6] [mmHg] | IOP % change [1, 7] [%] | IOP Change mmHg [1, 7] [mmHg] | IOP lowering efficacy (in words) [1] | Emax [2] [%] | EC50 [2] [nM] | Emax [3] [%] | EC50 [3] [nM] | Emax [4] [%] | EC50 [4] [nM] | potency relative to the S enantiomer at the 5-HT2C receptor (5-HT2C receptor)
O=C1Nc2cc(Cl)c(Cl)cc2N2CCNCC12 (racemic) [Racemic, 8,9-dichloro-2,3,4,4a-tetrahydro-1H,6H-pyrazino[1,2-a]quinoxalin-5-one] | −5.7 | −2.8 | −21.9 | −9.6 | −29.3 | −12.8 | significant decrease in IOP | 98 | 76.8 | 105 | 4.2 | 112 | 37.5 | –
O=C1Nc2cc(Cl)c(Cl)cc2N2CCNC[C@H]12 [R enantiomer, (R)-8,9-dichloro-2,3,4,4a-tetrahydro-1H,6H-pyrazino[1,2-a]quinoxalin-5-one] | −12.9 | −5.8 | −26.3 | −11.7 | −34.7 | −15.0 | significant decrease in IOP | 99 | 31.6 | 108 | 2.6 | 108 | 20.5 | approximately 40 fold
O=C1Nc2cc(Cl)c(Cl)cc2N2CCNC[C@@H]12 [S enantiomer] | – | – | – | – | – | – | – | 45 | 2540 | 105 | 614 | 96 | 2260 | –
